Data from patent US10829473B2, “Modulators of the cystic fibrosis transmembrane conductance regulator protein and methods of use” (AbbVie Overseas S.Á.R.L., priority 2017, dated 2020).
Like-named read-outs stand apart in the source and are kept apart here. Marks after values point to notes of the source that are not given here.

Molecular target: T1, F508delCFTR (Homo sapiens, UniProt P13569, DEL508-508)
T1 construct: expressed in transfected cells; host or cells: CFBE41o- human lung derived epithelial cells (CFBE41o-F508delCFTR-HRP), doxycycline-inducible
T1 sequence (P13569 with tags, fused parts or gaps DEL508-508): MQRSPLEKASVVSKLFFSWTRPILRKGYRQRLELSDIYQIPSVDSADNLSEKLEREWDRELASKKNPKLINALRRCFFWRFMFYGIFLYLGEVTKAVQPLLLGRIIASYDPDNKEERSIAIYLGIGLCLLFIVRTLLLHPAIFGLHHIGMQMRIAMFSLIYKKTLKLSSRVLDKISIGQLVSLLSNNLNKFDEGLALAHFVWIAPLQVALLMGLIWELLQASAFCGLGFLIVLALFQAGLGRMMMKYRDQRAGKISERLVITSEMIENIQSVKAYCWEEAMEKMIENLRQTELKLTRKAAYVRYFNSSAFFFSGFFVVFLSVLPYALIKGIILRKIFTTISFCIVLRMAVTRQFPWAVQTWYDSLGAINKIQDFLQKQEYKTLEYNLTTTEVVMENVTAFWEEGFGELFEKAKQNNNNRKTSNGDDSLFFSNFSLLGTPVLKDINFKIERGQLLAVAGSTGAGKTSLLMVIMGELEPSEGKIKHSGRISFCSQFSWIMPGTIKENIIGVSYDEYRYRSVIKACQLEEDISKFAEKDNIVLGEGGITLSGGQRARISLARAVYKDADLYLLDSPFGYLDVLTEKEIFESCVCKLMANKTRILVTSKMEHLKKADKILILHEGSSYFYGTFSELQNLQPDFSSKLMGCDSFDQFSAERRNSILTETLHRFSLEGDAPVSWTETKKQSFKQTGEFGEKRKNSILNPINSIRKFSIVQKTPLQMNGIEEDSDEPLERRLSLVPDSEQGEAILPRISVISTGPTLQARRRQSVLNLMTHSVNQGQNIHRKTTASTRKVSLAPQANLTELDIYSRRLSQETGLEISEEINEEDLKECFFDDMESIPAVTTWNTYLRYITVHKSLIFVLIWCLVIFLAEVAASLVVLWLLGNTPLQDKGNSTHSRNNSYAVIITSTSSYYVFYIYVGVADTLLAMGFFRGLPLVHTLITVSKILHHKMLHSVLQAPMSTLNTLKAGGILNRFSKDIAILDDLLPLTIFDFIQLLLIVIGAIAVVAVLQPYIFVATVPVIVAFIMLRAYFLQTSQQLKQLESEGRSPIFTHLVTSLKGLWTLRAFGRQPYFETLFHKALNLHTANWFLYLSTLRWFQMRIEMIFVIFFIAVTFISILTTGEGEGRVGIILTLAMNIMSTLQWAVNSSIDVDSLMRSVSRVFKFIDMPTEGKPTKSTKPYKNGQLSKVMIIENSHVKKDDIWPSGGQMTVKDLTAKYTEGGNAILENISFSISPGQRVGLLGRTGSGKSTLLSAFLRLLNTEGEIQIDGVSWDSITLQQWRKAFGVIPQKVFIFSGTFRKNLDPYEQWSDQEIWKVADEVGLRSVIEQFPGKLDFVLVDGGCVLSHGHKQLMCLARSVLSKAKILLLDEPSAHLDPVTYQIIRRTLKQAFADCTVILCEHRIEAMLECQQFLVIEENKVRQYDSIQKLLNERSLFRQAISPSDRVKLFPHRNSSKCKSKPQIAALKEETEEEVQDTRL
Experiment: Cell Surface Expression-Horse Radish Peroxidase (CSE-HRP) Assay;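 on EC50 (with co-corrector): co-corrector chromenyl benzoic acid corrector at 2 or 3 µM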;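 on Maximum % activity (without co-corrector): % of on-plate positive control chromenyl benzoic acid corrector at 2 or 3 µM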
Assay type: cell-based
Conditions: for Maximum % activity (with co-corrector) / Emax: maximum at any tested concentration; for Emax: read-out: Maximum % activity (without co-corrector)
In short: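 Corrector compounds were given as 8-point 3-fold series from 20 or 30 μM, with or without a 2 μM co-corrector, for 18-24 h at 33 °C. Surface HRP was read by luminol luminescence as % of positive control; variable-Hill-slope sigmoidal fitting gave EC50 from triplicate plates.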

[1] = test compound alone, without co-corrector, read-out: EC50 (without co-corrector)
[2] = with co-corrector, read-out: EC50 (with co-corrector)
[3] = test compound with co-corrector
[4] = test compound without co-corrector

| EC50 [1] [µM] | Maximum % activity (with co-corrector) (with co-corrector) | EC50 [2] [µM] | Emax (without co-corrector) [%] | EC50 (with co-corrector) [3] | Maximum % activity (with co-corrector) [3] | EC50 (without co-corrector) [4] | Emax [4] [%] | SMILES |
| --- | --- | --- | --- | --- | --- | --- | --- | --- |
| 3 to 10 | +++ (≥350) | 3 to 10 | 50 to 150 |  |  |  |  | COc1ccc(C)nc1C1(C(=O)NS(=O)(=O)c2cccc3ncccc23)CC1 [Example III-124, 1-(3-methoxy-6-methylpyridin-2-yl)-N-(quinoline-5-sulfonyl)cyclopropane-1-carboxamide] |
| 3 to 10 | +++ (≥350) | 3 to 10 | > 150 |  |  |  |  | COc1ccc(C)nc1C1(C(=O)NS(=O)(=O)c2cccc3ccccc23)CC1 [Example III-125, 1-(3-methoxy-6-methylpyridin-2-yl)-N-(naphthalene-1-sulfonyl)cyclopropane-1-carboxamide] |
| < 3 | ++ (≥150 and <350) | < 3 | 50 to 150 |  |  |  |  | COc1ccc(C)nc1C1(C(=O)NS(=O)(=O)c2cccc3nc(C)ccc23)CC1 [Example III-126, 1-(3-methoxy-6-methylpyridin-2-yl)-N-(2-methylquinoline-5-sulfonyl)cyclopropane-1-carboxamide] |
| 3 to 10 | +++ (≥350) | < 3 | > 150 |  |  |  |  | Cc1ccc(C)c(C2(C(=O)NS(=O)(=O)c3cccc4[nH]ncc34)CC2)c1 [Example III-127, 1-(2,5-dimethylphenyl)-N-(1H-indazole-4-sulfonyl)cyclopropane-1-carboxamide] |
| 3 to 10 | ++ (≥150 and <350) | 3 to 10 | < 50 |  |  |  |  | COc1ccc(C2(OC)COC2)cc1C1(C(=O)NS(=O)(=O)c2cccc3ncccc23)CC1 [Example III-128, 1-[2-methoxy-5-(3-methoxyoxetan-3-yl)phenyl]-N-(quinoline-5-sulfonyl)cyclopropane-1-carboxamide] |
| 3 to 10 | +++ (≥350) | 3 to 10 | > 150 |  |  |  |  | [2H]C1(c2ccc(OC)c(C3(C(=O)NS(=O)(=O)c4cccc5ncccc45)CC3)c2)COC1 [Example III-129, 1-{2-methoxy-5-[(3-^2H)oxetan-3-yl]phenyl}-N-(quinoline-5-sulfonyl)cyclopropane-1-carboxamide] |
| 3 to 10 | +++ (≥350) | < 3 | > 150 |  |  |  |  | Cc1cnc(OCC(C)C)c(C2(C(=O)NS(=O)(=O)c3cccc4[nH]ncc34)CC2)c1 [Example III-130, N-(1H-indazole-4-sulfonyl)-1-[5-methyl-2-(2-methylpropoxy)pyridin-3-yl]cyclopropane-1-carboxamide] |
| 3 to 10 | +++ (≥350) | 3 to 10 | > 150 |  |  |  |  | Cc1cnc(OC(C)C)c(C2(C(=O)NS(=O)(=O)c3cccc4[nH]ncc34)CC2)c1 [Example III-131, N-(1H-indazole-4-sulfonyl)-1-{5-methyl-2-[(propan-2-yl)oxy]pyridin-3-yl}cyclopropane-1-carboxamide] |
| < 3 | +++ (≥350) | < 3 | > 150 |  |  |  |  | CCc1cccc(OC)c1C1(C(=O)NS(=O)(=O)c2cccc3nc(C)ccc23)CC1 [Example III-133, 1-(2-ethyl-6-methoxyphenyl)-N-(2-methylquinoline-5-sulfonyl)cyclopropane-1-carboxamide] |
| < 3 | +++ (≥350) | < 3 | > 150 |  |  |  |  | CCOc1ccc(C)cc1C1(C(=O)NS(=O)(=O)c2cccc3nc(N(C)C)ccc23)CC1 [Example III-134, N-[2-(dimethylamino)quinoline-5-sulfonyl]-1-(2-ethoxy-5-methylphenyl)cyclopropane-1-carboxamide] |
|  |  |  |  | ++^a | ++ (≥150 and <350) | ++^a | < 50 | COc1ncc(C2(C(=O)NS(=O)(=O)c3cccc4ccccc34)CC2)c(OC)n1 [GII-1, 1-(2,4-dimethoxypyrimidin-5-yl)-N-(naphthalene-1-sulfonyl)cyclopropane-1-carboxamide] |

Further lines, the molecule ahead of its results:

| SMILES | EC50 [1] [µM] | Maximum % activity (with co-corrector) (with co-corrector) | EC50 [2] [µM] | Emax (without co-corrector) [%] | EC50 (with co-corrector) [3] | Maximum % activity (with co-corrector) [3] | EC50 (without co-corrector) [4] | Emax [4] [%] |
| --- | --- | --- | --- | --- | --- | --- | --- | --- |
| O=C(NS(=O)(=O)Cc1ccccc1)C1(c2ccc(Cl)cc2)CC1 [Example III-114, 1-(4-chlorophenyl)-N-(phenylmethanesulfonyl)cyclopropane-1-carboxamide] | > 10 | + (<150) | 3 to 10 | < 50 |  |  |  |  |
| O=C(NS(=O)(=O)Cc1ccccc1)C1(c2ccc(Cl)c(Cl)c2)CC1 [Example III-115, 1-(3,4-dichlorophenyl)-N-(phenylmethanesulfonyl)cyclopropane-1-carboxamide] | > 10 | + (<150) | > 10 | < 50 |  |  |  |  |
| CCC(CC)S(=O)(=O)NC(=O)C1(c2ccccc2)CC1 [Example III-116, N-(pentane-3-sulfonyl)-1-phenylcyclopropane-1-carboxamide] | > 10 | + (<150) | > 10 | < 50 |  |  |  |  |
| CCCS(=O)(=O)NC(=O)C1(c2cccc(OC)c2)CCOCC1 [Example III-119, 4-(3-methoxyphenyl)-N-(propane-1-sulfonyl)oxane-4-carboxamide] | > 10 | + (<150) | > 10 | < 50 |  |  |  |  |
| CCCS(=O)(=O)NC(=O)C1(c2cccc(C)c2)CCOCC1 [Example III-120, 4-(3-methylphenyl)-N-(propane-1-sulfonyl)oxane-4-carboxamide] | > 10 | + (<150) | > 10 | < 50 |  |  |  |  |
| COc1ccc(C2(C(=O)NS(=O)(=O)c3cccc4ccccc34)CCC2)cc1OC [Example III-121, 1-(3,4-dimethoxyphenyl)-N-(naphthalene-1-sulfonyl)cyclobutane-1-carboxamide] | > 10 | + (<150) | > 10 | < 50 |  |  |  |  |
| COc1cccc(-c2cnn(C)c2)c1C1(C(=O)NS(=O)(=O)c2cccc3ncccc23)CC1 [Example III-122, 1-[2-methoxy-6-(1-methyl-1H-pyrazol-4-yl)phenyl]-N-(quinoline-5-sulfonyl)cyclopropane-1-carboxamide] | 3 to 10 | +++ (≥350) | 3 to 10 | > 150 |  |  |  |  |
| COc1cc(C2CCC2)cc(OC)c1C1(C(=O)NS(=O)(=O)c2cccc3ncn(C)c23)CC1 [Example III-123, 1-(4-cyclobutyl-2,6-dimethoxyphenyl)-N-(1-methyl-1H-benzimidazole-7-sulfonyl)cyclopropane-1-carboxamide] | 3 to 10 | +++ (≥350) | < 3 | > 150 |  |  |  |  |
| CCc1cccc(OC)c1C1(C(=O)NS(=O)(=O)c2cccc3[nH]ncc23)CC1 [Example III-132, 1-(2-ethyl-6-methoxyphenyl)-N-(lH-indazole-4-sulfonyl)cyclopropane-1-carboxamide] | < 3 | +++ (≥350) | < 3 | > 150 |  |  |  |  |
